Literature values in US20060241549A1, “Apparatus and method for precise ozone/oxygen delivery applied to the treatment of dermatological conditions, including gas gangrene, and related disorders” (priority 2005, published 2006).

Details: as a gas, at room temperature

## O=[O+][O-] [ozone, Ozone]
  half-life: approximately 50 minutes
